Like-named read-outs stand apart in the source and are kept apart here.
Columns and labels:
Assay type in all cases: cell-based
MV-4-11 cells = test: MV-4-11 cell proliferation inhibition (MTS assay); conditions: Homo sapiens
Protocol: MV-4-11 cells were cultured in IMDM medium supplemented with 10% fetal bovine serum and collected. The cell concentration was diluted according to a 7-day incubation period, and 180 µL of cell suspension was added to each well of a 96-well plate, resulting in 2,000 cells per well. […] The test compounds were prepared from a 10 mM stock solution and serially diluted in a five-fold gradient, and 20 µL of the diluted compound solution was added to each compound-treated well (final DMSO concentration 0.2%). The cells were incubated in a 37 °C, 5% CO2 incubator for 7 days. After incubation, the reaction solution was prepared according to the MTS assay kit instructions (Promega, G5430), and 20 µL was added to each well. The plate was further incubated at 37 °C with 5% CO2 for 3-4 hours. The absorbance at 490 nm was measured using a microplate reader, and the absorbance at 690 nm was used as the background value. The final raw data were calculated as OD490 - OD690. […] The IC50 values for cell proliferation inhibition were determined using GraphPad Prism 5.0. Each experiment was repeated three times, and three parallel replicates were performed in each experiment to calculate the mean value and standard deviation.
Table 3. Inhibitory Activity of Compounds on MV-4-11 Cell Proliferation

Mino cells = test: Mino cell proliferation inhibition (MTS assay); conditions: Homo sapiens, 72 h, 3 days incubation, read-out: Mino (IC50, Inhibitory Activity of Compounds on Mino Cell Proliferation)
Protocol: The cell concentration was diluted according to a 3-day incubation period, and 90 µL of cell suspension was added to each well of a 96-well plate, resulting in 8,000 cells per well. […] The test compounds were prepared from a 10 mM stock solution and serially diluted in a five-fold gradient. Similarly, 10 µL of the diluted compound solution was added to each compound-treated well (final DMSO concentration 0.2%).
The cells were incubated in a 37 °C, 5% CO2 incubator for 3 days. After incubation, the reaction solution was prepared according to the MTS assay kit instructions (Promega, G5430), and 20 µL was added to each well. The plate was further incubated at 37 °C with 5% CO2 for 3-4 hours. The absorbance at 490 nm was measured using a microplate reader, and the absorbance at 690 nm was used as the background value. The final raw data were calculated as OD490 - OD690. […] The IC50 values for cell proliferation inhibition were determined using GraphPad Prism 5.0. Each experiment was repeated three times, and three parallel replicates were performed in each experiment to calculate the mean value and standard deviation.
Table 2. Inhibitory Activity of Compounds on Mino Cell Proliferation

MM.1S cells = test: MM.1S cell proliferation inhibition (MTS assay); conditions: Homo sapiens, MM1.S, 168 h, 7 days incubation, read-out: MM1.S (IC50, Inhibitory Activity of Compounds on MM.1S Cell Proliferation)
Protocol: The cell concentration was diluted according to a 7-day incubation period, and 180 µL of cell suspension was added to each well of a 96-well plate, with 20,000 cells per well. […] The test compounds were prepared from a 10 mM stock solution and serially diluted in a 5-fold gradient, and 20 µL of the diluted solution was added to each compound-treated well (final DMSO concentration also 0.2%). The cells were incubated in a 37 °C, 5% CO2 incubator for 7 days. After incubation, the reaction solution was prepared according to the MTS assay kit instructions (Promega, G5430), and 20 µL was added to each well. The plate was incubated at 37 °C with 5% CO2 for 3-4 hours. The absorbance at 490 nm was measured using a microplate reader, and the absorbance at 690 nm was used as the background value. […] The IC50 values for cell proliferation inhibition were determined using GraphPad Prism 5.0. Each experiment was repeated three times, and three parallel replicates were performed in each experiment to calculate the mean value and standard deviation.
Inhibitory Activity of Compounds on MM.1S Cell Proliferation

[1] = MV4-11, reference compounds, read-out: cell growth inhibitory activity (IC50)
[2] = MV4-11, 168 h, 7 days incubation, MTS, read-out: MV-411 (IC50, Inhibitory Activity of Compounds on MV-4-11 Cell Proliferation)

O=C1CC[C@H](N2Cc3c(OCc4ccc(CN5CCOCC5)cc4)cccc3C2=O)C(=O)N1 [CC-220, reference compound]
IC50 (MV-4-11 cells; [1]): > 20000 nM

N#Cc1ccc(N2CCC(Sc3ccc(COc4cccc5c(=O)n([C@H]6CCC(=O)NC6=O)[nH]c45)cn3)CC2)c(F)c1 [Compound D3, (S)-4-(4-((5-(((2-(2,6-dioxopiperidin-3-yl)-3-oxo-2,3-dihydro-1H-indazol-7-yl)oxy)methyl)pyridin-2-yl)thio)piperidin-1-yl)-3-fluorobenzonitrile]
IC50 (Mino cells): < 200 nM | IC50 (MV-4-11 cells; [2]): 200 to 1000 nM | IC50 (MM.1S cells): < 200 nM

O=C1CCC(n2[nH]c3c(OCc4ccc(CN5CCN(c6ccc(C(F)(F)F)cc6)CC5)cc4)cccc3c2=O)C(=O)N1 (centres unmarked) [Compound D11, 3-(3-Oxo-7-((4-((4-(4-(trifluoromethyl)phenyl)piperazin-1-yl)methyl)benzyl)oxy)-1,3-dihydro-2H-indazol-2-yl)piperidine-2,6-dione]
IC50 (Mino cells): 200 to 1000 nM | IC50 (MV-4-11 cells; [2]): < 200 nM | IC50 (MM.1S cells): < 200 nM

O=C1CCC(n2[nH]c3c(OCc4ccc(CN5CCN(c6ccc(Cl)cc6Cl)CC5)cc4)cccc3c2=O)C(=O)N1 (centres unmarked) [Compound D12, 3-(7-((4-((4-(2,4-dichlorophenyl)piperazin-1-yl)methyl)benzyl)oxy)-3-oxo-1,3-dihydro-2H-indazol-2-yl)piperidine-2,6-dione]
IC50 (Mino cells): 200 to 1000 nM | IC50 (MV-4-11 cells; [2]): < 200 nM | IC50 (MM.1S cells): < 200 nM

O=C1CCC(n2[nH]c3c(OCc4ccc(CN5CC(N6CCOCC6)C5)cc4)cccc3c2=O)C(=O)N1 (centres unmarked) [Compound D13, 3-(7-((4-((3-morpholinoazetidin-1-yl)methyl)benzyl)oxy)-3-oxo-1,3-dihydro-2H-indazol-2-yl)piperidine-2,6-dione]
IC50 (Mino cells): 1000 to 10000 nM | IC50 (MV-4-11 cells; [2]): 200 to 1000 nM | IC50 (MM.1S cells): < 200 nM

O=C1CCC(n2[nH]c3c(OCc4ccc(CN5CCN(c6ccc(Cl)cc6Cl)CC5)cc4)cc(F)cc3c2=O)C(=O)N1 (centres unmarked) [Compound D16, 3-(7-((4-((4-(2,4-dichlorophenyl)piperazin-1-yl)methyl)benzyl)oxy)-5-fluoro-3-oxo-1,3-dihydro-2H-indazol-2-yl)piperidine-2,6-dione]
IC50 (Mino cells): < 200 nM | IC50 (MV-4-11 cells; [2]): < 200 nM | IC50 (MM.1S cells): < 200 nM

O=C1CCC(n2[nH]c3c(OCc4ccc(CN5CCN(c6ccc(C(F)(F)F)cc6)CC5)cc4)cc(F)cc3c2=O)C(=O)N1 (centres unmarked) [Compound D17, 3-(5-Fluoro-3-oxo-7-((4-((4-(4-(trifluoromethyl)phenyl)piperazin-1-yl)methyl)benzyl)oxy)-1,3-dihydro-2H-indazol-2-yl)piperidine-2,6-dione]
IC50 (Mino cells): < 200 nM | IC50 (MV-4-11 cells; [2]): < 200 nM | IC50 (MM.1S cells): < 200 nM

O=C1CCC(n2[nH]c3c(OCc4ccc(CN5CC(N6CCOCC6)C5)cc4)cc(F)cc3c2=O)C(=O)N1 (centres unmarked) [Compound D20, 3-(5-Fluoro-7-((4-((3-morpholinoazetidin-1-yl)methyl)benzyl)oxy)-3-oxo-1,3-dihydro-2H-indazol-2-yl)piperidine-2,6-dione]
IC50 (Mino cells): 200 to 1000 nM | IC50 (MV-4-11 cells; [2]): 200 to 1000 nM | IC50 (MM.1S cells): < 200 nM

O=C1CCC(n2[nH]c3c(OCc4ccc(CN5CCN(c6ccc(Cl)cc6F)CC5)cc4)cc(F)cc3c2=O)C(=O)N1 (centres unmarked) [Compound D21, 3-(7-((4-((4-(4-chloro-2-fluorophenyl)piperazin-1-yl)methyl)benzyl)oxy)-5-fluoro-3-oxo-1,3-dihydro-2H-indazol-2-yl)piperidine-2,6-dione]
IC50 (Mino cells): 200 to 1000 nM | IC50 (MV-4-11 cells; [2]): < 200 nM | IC50 (MM.1S cells): < 200 nM

Cn1c2c(OCc3ccc(CN4CCOCC4)cc3)cccc2c(=O)n1C1CCC(=O)NC1=O (centres unmarked) [Compound D22, 3-(1-Methyl-7-((4-(morpholinomethyl)benzyl)oxy)-3-oxo-1,3-dihydro-2H-indazol-2-yl)piperidine-2,6-dione]
IC50 (Mino cells): > 10000 nM | IC50 (MV-4-11 cells; [2]): > 20000 nM | IC50 (MM.1S cells): < 200 nM

Cn1c2c(OCc3ccc(CN4CCN(c5ccc(C#N)cc5F)CC4)cc3)cccc2c(=O)n1C1CCC(=O)NC1=O (centres unmarked) [Compound D24, 4-(4-(4-(((2-(2,6-dioxopiperidin-3-yl)-1-methyl-3-oxo-2,3-dihydro-1H-indazol-7-yl)oxy)methyl)benzyl)piperazin-1-yl)-3-fluorobenzonitrile]
IC50 (Mino cells): < 200 nM | IC50 (MV-4-11 cells; [2]): > 20000 nM | IC50 (MM.1S cells): < 200 nM

O=C1CC[C@H](n2[nH]c3c(OCc4cnc(-c5ccc(OC(F)(F)F)cc5)o4)cccc3c2=O)C(=O)N1 [Compound D26, (S)-3-(3-Oxo-7-((2-(4-(trifluoromethoxy)phenyl)oxazol-5-yl)methoxy)-1,3-dihydro-2H-indazol-2-yl)piperidine-2,6-dione]
IC50 (Mino cells): 1000 to 10000 nM | IC50 (MV-4-11 cells; [2]): 1000 to 20000 nM | IC50 (MM.1S cells): 1000 to 10000 nM

O=C1CC[C@H](n2[nH]c3c(OCc4cnc(-c5ccc(Cl)cc5)o4)cccc3c2=O)C(=O)N1 [Compound D27, (S)-3-(7-((2-(4-chlorophenyl)oxazol-5-yl)methoxy)-3-oxo-1,3-dihydro-2H-indazol-2-yl)piperidine-2,6-dione]
IC50 (Mino cells): > 10000 nM | IC50 (MV-4-11 cells; [2]): > 20000 nM | IC50 (MM.1S cells): 1000 to 10000 nM

COc1ccc(-c2ncc(COc3cccc4c(=O)n(C5CCC(=O)NC5=O)[nH]c34)o2)cc1 (centres unmarked) [Compound D28, 3-(7-((2-(4-methoxyphenyl)oxazol-5-yl)methoxy)-3-oxo-1,3-dihydro-2H-indazol-2-yl)piperidine-2,6-dione]
IC50 (Mino cells): > 10000 nM | IC50 (MV-4-11 cells; [2]): > 20000 nM | IC50 (MM.1S cells): 1000 to 10000 nM

O=C1CCC(n2[nH]c3cc(C(=O)NCc4ccc(Cl)cc4)ccc3c2=O)C(=O)N1 (centres unmarked) [Compound D29, N-(4-chlorobenzyl)-2-(2,6-dioxopiperidin-3-yl)-3-oxo-2,3-dihydro-1H-indazole-6-carboxamide]
IC50 (Mino cells): > 10000 nM | IC50 (MV-4-11 cells; [2]): > 20000 nM | IC50 (MM.1S cells): > 10000 nM

C[C@H](NC(=O)c1ccc2c(=O)n(C3CCC(=O)NC3=O)[nH]c2c1)c1ccc(Cl)cc1 (stereo partly drawn) [Compound D30, N-((S)-1-(4-chlorophenyl)ethyl)-2-(2,6-dioxopiperidin-3-yl)-3-oxo-2,3-dihydro-1H-indazole-6-carboxamide]
IC50 (Mino cells): 1000 to 10000 nM | IC50 (MV-4-11 cells; [2]): 1000 to 20000 nM | IC50 (MM.1S cells): > 10000 nM

Cc1ccc([C@H](C)NC(=O)c2ccc3c(=O)n(C4CCC(=O)NC4=O)[nH]c3c2)cc1 (some centres unmarked) [Compound D31]
IC50 (Mino cells): > 10000 nM | IC50 (MV-4-11 cells; [2]): > 20000 nM | IC50 (MM.1S cells): > 10000 nM

C[C@@H](NC(=O)c1ccc2c(=O)n(C3CCC(=O)NC3=O)[nH]c2c1)c1ccccc1 (stereo partly drawn) [Compound D32, 2-(2,6-dioxopiperidin-3-yl)-3-oxo-N-((R)-1-phenylethyl)-2,3-dihydro-1H-indazole-6-carboxamide]
IC50 (Mino cells): > 10000 nM | IC50 (MV-4-11 cells; [2]): > 20000 nM | IC50 (MM.1S cells): > 10000 nM

C[C@H](NC(=O)c1ccc2c(=O)n(C3CCC(=O)NC3=O)[nH]c2c1)c1ccccc1 (stereo partly drawn) [Compound D33, 2-(2,6-dioxopiperidin-3-yl)-3-oxo-N-((S)-1-phenylethyl)-2,3-dihydro-1H-indazole-6-carboxamide]
IC50 (Mino cells): > 10000 nM | IC50 (MV-4-11 cells; [2]): > 20000 nM | IC50 (MM.1S cells): > 10000 nM

C[C@@H](NC(=O)c1ccc2c(=O)n(C3CCC(=O)NC3=O)[nH]c2c1)c1ccc(Cl)cc1 (stereo partly drawn) [Compound D34, N-((R)-1-(4-chlorophenyl)ethyl)-2-(2,6-dioxopiperidin-3-yl)-3-oxo-2,3-dihydro-1H-indazole-6-carboxamide]
IC50 (Mino cells): > 10000 nM | IC50 (MV-4-11 cells; [2]): > 20000 nM | IC50 (MM.1S cells): > 10000 nM

O=C1CCC(n2[nH]c3cc(C(=O)N[C@@H](c4ccccc4)C(F)(F)F)ccc3c2=O)C(=O)N1 (stereo partly drawn) [Compound D35, 2-(2,6-dioxopiperidin-3-yl)-3-oxo-N-((S)-2,2,2-trifluoro-1-phenylethyl)-2,3-dihydro-1H-indazole-6-carboxamide]
IC50 (Mino cells): > 10000 nM | IC50 (MV-4-11 cells; [2]): > 20000 nM | IC50 (MM.1S cells): > 10000 nM

Nc1cccc2c1C(=O)N(C1CCC(=O)NC1=O)C2=O (centres unmarked) [pomalidomide, reference compound]
IC50 (MV-4-11 cells; [1]): > 20000 nM

Source: patent EP4778920A1, “INDAZOLONE COMPOUND, PREPARATION METHOD THEREFOR, PHARMACEUTICAL COMPOSITION, AND USE” (Shanghai Institute of Materia Medica, Chinese Academy of …, priority 2023, dated 2025)
